Converted amounts (≈) assume the structure as drawn. The source made the active and inactive calls. No cut-off for these calls is given here.
Key:
[1] = Permeability of the compound across apical to basolateral membrane in human Caco-2 cells incubated for 2 hrs by LC-MS/MS analysis
[2] = biological target: AP2-associated protein kinase 1 (Mus musculus) (UniProt Q3UHJ0); test: In vivo inhibition of AAK1 in sc dosed C57BL6 mouse assessed as suppression of mu2 phosphorylation in brain lysate by Western blot analysis; format: functional, organism-based
[3] = Metabolic stability in human liver microsomes assessed as parent compound remaining at 0.5 uM incubated for 10 mins in presence of NADPH by LC-MS/MS analysis; format: ADME, Microsome; details: read-out: Stability
[4] = Metabolic stability in rat liver microsomes assessed as parent compound remaining at 0.5 uM incubated for 10 mins in presence of NADPH by LC-MS/MS analysis; format: ADME, Microsome; details: read-out: Stability
[5] = Protein binding in human plasma assessed as unbound fraction at 10 uM measured after 5 hrs by equilibrium dialysis method
[6] = Drug concentration in C57BL6 mouse at 10 ml/kg, sc measured after 2 hrs by LC-MS/MS analysis; format: ADME, organism-based; details: plasma
[7] = Ratio of drug concentration in brain to plasma in C57BL6 mouse at 30 mg/kg, sc; format: ADME, organism-based; details: read-out: BPR
[8] = Aqueous solubility of the compound at pH 1; format: physicochemical
[9] = biological target: Cyclin-G-associated kinase (Homo sapiens) (UniProt O14976); test: Inhibition of wild-type human partial length GAK (G13 to Y338 residues) expressed in bacterial expression system assessed as residual binding level at 1 uM by Kinomescan method relative to control
[10] = biological target: G protein-coupled receptor kinase 4 (Homo sapiens) (UniProt P32298); test: Inhibition of wild-type human full length GRK4 (M1 to C578 residues) expressed in bacterial expression system assessed as residual binding level at 1 uM by Kinomescan method relative to control
[11] = biological target: MAP kinase-interacting serine/threonine-protein kinase 2 (Homo sapiens, UniProt Q9HBH9); test: Inhibition of wild-type human partial length MKNK2 (G63 to S388 residues) expressed in mammalian expression system assessed as residual binding level at 1 uM by Kinomescan method relative to control
[12] = biological target: SRSF protein kinase 3 (Homo sapiens) (UniProt Q9UPE1); test: Inhibition of wild-type human partial length SRPK3 (P41 to P567 residues) expressed in bacterial expression system assessed as residual binding level at 1 uM by Kinomescan method relative to control
[13] = biological target: Phosphatidylinositol 4-phosphate 5-kinase type-1 alpha (Homo sapiens) (UniProt Q99755); test: Inhibition of wild-type human full length PIP5K1A (M1 to H562 residues) expressed in bacterial expression system assessed as residual binding level at 1 uM by Kinomescan method relative to control
[14] = biological target: BMP-2-inducible protein kinase (Homo sapiens, UniProt Q9NSY1); test: Inhibition of wild-type human partial length BIKE (S34 to N329 residues) expressed in bacterial expression system by Kinomescan method
[15] = biological target: Citron Rho-interacting kinase (Homo sapiens, UniProt O14578); test: Inhibition of CRIK (unknown origin) by Kinomescan method
[16] = biological target: Cyclin-G-associated kinase (Homo sapiens, UniProt O14976); test: Inhibition of wild-type human partial length GAK (G13 to Y338 residues) expressed in bacterial expression system by Kinomescan method
[17] = biological target: MAP kinase-interacting serine/threonine-protein kinase 1 (Homo sapiens, UniProt Q9BUB5); test: Inhibition of wild-type human full length MKNK1 (M1 to L424 residues) expressed in mammalian expression system by Kinomescan method
[18] = biological target: Protein kinase C theta type (Homo sapiens, UniProt Q04759); test: Inhibition of PKCtheta (unknown origin)
[19] = biological target: Alpha-2C adrenergic receptor (Homo sapiens, UniProt P18825); test: Inhibition of alpha 2C adrenergic receptor (unknown origin)
[20] = biological target: Sodium-dependent noradrenaline transporter (Homo sapiens, UniProt P23975); test: Inhibition of NET (unknown origin)
[21] = biological target: AP2-associated protein kinase 1 (Mus musculus) (UniProt Q3UHJ0); test: In vivo inhibition of AAK1 in C57BL6 mouse assessed as suppression of mu2 phosphorylation in brain lysate at 10 mg/kg, sc measured after 30 mins by Western blot analysis relative to control; format: functional, organism-based
[22] = biological target: AP2-associated protein kinase 1 (Mus musculus) (UniProt Q3UHJ0); test: In vivo inhibition of AAK1 in C57BL6 mouse assessed as suppression of mu2 phosphorylation in brain lysate at 30 mg/kg, sc measured after 2 hrs by Western blot analysis; format: functional, organism-based
[23] = Drug concentration in plasma of C57BL6 mouse at 3 mg/kg, sc; format: ADME, organism-based; details: in vivo
[24] = Drug concentration in plasma of C57BL6 mouse at 10 mg/kg, sc; format: ADME, organism-based; details: in vivo
[25] = Drug concentration in plasma of C57BL6 mouse at 30 mg/kg, sc; format: ADME, organism-based; details: in vivo
[26] = Drug concentration in plasma of C57BL6 mouse at 60 mg/kg, sc; format: ADME, organism-based; details: in vivo
Mus musculus [27] = test: Antinociceptive activity against formalin-induced nociceptive behavior in C57BL6 mouse assessed as reduction in phase 2 hind paw flinching at 30 mg/kg, sc administered 60 mins prior to formalin challenge by formalin test; format: functional, organism-based
Mus musculus [28] = test: Antinociceptive activity against formalin-induced nociceptive behavior in C57BL6 mouse assessed as reduction in phase 2 hind paw licking/biting at 30 mg/kg, sc administered 60 mins prior to formalin challenge by formalin test; format: functional, organism-based
Mus musculus [29] = test: Antinociceptive activity against formalin-induced nociceptive behavior in C57BL6 mouse assessed as reduction in phase 2 hind paw flinching at 10 mg/kg, sc administered 60 mins prior to formalin challenge by formalin test; format: functional, organism-based
Rattus norvegicus [30] = test: Antinociceptive activity in Sprague-Dawley rat model of chronic constriction injury-induced neuropathic pain assessed as reduction in paw withdrawal latency at 60 mg/kg, sc by Von Frey test; format: functional, organism-based
Rattus norvegicus [31] = test: Antinociceptive activity in Sprague-Dawley rat model of chronic constriction injury-induced neuropathic pain assessed as reduction in mechanical hyperalgesia 60 mg/kg, sc by Von Frey test relative to control; format: functional; set-up: scale not given: the % may be the effect or the level left
Rattus norvegicus [32] = test: Reversal of chronic constriction injury-induced cold allodynia in Sprague-Dawley rat model of neuropathic pain at 60 mg/kg, sc measured up to 180 mins relative to control; format: functional; details: time min <=180
[33] = Unbound brain-to-plasma concentration ratio in Sprague-Dawley rat model of chronic constriction injury-induced neuropathic pain at 60 mg/kg, sc measured after 240 mins; format: ADME, organism-based; details: read-out: K(p,uu,brain)
Rattus norvegicus [34] = test: Antinociceptive activity in Sprague-Dawley rat model of chronic constriction injury-induced neuropathic pain assessed as reduction in thermal hyperalgesia 30 mg/kg, sc by Von Frey test relative to control; format: functional; set-up: scale not given: the % may be the effect or the level left
[35] = Unbound drug concentration in plasma of Sprague-Dawley rat model of chronic constriction injury-induced neuropathic pain at 1 mg/kg, sc; format: ADME, organism-based; details: in vivo
[36] = Unbound drug concentration in plasma of Sprague-Dawley rat model of chronic constriction injury-induced neuropathic pain at 30 mg/kg, sc; format: ADME, organism-based; details: in vivo
[37] = Drug concentration in Sprague-Dawley rat plasma at 10 mg/kg, sc measured after 190 mins; format: ADME, organism-based
[38] = Drug concentration in Sprague-Dawley rat plasma at 60 mg/kg, sc measured after 190 mins; format: ADME, organism-based

Sequence of AP2-associated protein kinase 1 (Mus musculus) (Q3UHJ0 whole entry, looked up): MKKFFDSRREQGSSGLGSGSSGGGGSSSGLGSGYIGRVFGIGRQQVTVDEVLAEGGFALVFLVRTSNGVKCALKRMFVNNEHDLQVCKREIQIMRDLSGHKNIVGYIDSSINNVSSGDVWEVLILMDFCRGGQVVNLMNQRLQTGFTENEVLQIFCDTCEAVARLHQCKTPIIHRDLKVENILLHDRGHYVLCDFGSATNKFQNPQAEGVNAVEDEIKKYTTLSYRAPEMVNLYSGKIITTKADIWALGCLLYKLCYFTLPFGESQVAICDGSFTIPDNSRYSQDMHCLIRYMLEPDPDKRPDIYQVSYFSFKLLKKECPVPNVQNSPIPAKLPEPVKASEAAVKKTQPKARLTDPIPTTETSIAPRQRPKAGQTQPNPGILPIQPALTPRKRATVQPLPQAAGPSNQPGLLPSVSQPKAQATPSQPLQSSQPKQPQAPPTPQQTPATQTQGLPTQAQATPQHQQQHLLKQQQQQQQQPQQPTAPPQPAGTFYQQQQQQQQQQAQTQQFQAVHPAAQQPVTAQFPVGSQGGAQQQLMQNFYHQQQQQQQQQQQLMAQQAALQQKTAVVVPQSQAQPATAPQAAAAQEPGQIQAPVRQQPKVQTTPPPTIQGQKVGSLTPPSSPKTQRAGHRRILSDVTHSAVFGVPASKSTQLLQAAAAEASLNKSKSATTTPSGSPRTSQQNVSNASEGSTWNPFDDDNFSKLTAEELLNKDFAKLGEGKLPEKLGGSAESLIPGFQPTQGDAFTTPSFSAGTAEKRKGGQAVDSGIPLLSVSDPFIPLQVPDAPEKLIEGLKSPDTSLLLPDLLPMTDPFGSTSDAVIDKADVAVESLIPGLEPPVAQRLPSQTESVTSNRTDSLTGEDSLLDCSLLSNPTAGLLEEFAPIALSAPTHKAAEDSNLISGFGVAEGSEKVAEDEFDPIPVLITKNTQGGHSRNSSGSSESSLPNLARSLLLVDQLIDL
Sequence of SRSF protein kinase 3 (Homo sapiens) (Q9UPE1 whole entry, the tested form may be a part): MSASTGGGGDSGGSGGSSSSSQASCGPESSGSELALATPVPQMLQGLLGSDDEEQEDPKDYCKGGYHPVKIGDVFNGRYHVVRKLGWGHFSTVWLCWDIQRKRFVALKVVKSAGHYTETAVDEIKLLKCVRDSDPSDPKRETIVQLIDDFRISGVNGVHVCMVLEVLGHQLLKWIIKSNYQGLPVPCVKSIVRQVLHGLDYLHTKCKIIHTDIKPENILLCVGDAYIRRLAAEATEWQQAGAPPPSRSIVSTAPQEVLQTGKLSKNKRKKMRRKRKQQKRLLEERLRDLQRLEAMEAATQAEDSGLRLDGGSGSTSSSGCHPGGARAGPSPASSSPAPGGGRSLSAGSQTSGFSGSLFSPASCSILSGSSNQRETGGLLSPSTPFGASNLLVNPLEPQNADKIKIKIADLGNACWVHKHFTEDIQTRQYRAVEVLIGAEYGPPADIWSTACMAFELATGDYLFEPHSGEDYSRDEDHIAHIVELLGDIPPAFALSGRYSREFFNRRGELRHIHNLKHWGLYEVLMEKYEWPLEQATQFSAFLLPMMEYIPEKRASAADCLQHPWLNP
Sequence of G protein-coupled receptor kinase 4 (Homo sapiens) (P32298 whole entry, looked up, the tested form may be a part): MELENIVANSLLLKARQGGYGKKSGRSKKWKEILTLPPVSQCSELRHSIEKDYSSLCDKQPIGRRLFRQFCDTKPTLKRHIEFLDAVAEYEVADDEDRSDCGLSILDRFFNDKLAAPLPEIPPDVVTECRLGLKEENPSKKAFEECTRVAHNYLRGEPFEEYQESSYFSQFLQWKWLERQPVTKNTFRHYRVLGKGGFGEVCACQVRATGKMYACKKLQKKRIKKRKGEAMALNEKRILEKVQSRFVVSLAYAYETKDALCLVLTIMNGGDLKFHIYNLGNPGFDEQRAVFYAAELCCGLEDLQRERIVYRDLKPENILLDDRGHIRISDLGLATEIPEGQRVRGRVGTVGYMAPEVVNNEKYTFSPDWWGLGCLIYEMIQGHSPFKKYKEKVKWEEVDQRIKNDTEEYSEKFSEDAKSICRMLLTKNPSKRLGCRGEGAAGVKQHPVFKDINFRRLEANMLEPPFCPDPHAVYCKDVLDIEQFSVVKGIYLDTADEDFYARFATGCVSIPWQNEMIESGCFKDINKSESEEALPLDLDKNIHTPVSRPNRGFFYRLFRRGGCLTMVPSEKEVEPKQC
Sequence of Sodium-dependent noradrenaline transporter (P23975 whole entry): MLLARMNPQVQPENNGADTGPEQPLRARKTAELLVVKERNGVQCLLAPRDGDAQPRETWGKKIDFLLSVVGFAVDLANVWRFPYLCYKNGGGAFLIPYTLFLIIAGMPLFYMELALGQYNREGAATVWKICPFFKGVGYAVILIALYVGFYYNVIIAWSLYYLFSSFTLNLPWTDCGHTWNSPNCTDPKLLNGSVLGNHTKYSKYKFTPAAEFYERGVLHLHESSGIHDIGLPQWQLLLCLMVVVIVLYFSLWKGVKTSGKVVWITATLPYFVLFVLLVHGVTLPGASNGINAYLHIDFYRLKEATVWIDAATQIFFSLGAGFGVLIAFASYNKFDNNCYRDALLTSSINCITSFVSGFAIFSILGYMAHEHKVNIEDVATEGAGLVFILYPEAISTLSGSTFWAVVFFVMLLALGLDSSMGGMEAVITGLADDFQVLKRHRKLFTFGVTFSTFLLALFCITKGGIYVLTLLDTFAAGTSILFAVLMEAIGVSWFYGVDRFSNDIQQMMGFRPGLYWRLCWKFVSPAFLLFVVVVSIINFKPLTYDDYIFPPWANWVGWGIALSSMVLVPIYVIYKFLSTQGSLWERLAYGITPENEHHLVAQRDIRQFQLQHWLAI
Sequence of Alpha-2C adrenergic receptor (P18825 whole entry): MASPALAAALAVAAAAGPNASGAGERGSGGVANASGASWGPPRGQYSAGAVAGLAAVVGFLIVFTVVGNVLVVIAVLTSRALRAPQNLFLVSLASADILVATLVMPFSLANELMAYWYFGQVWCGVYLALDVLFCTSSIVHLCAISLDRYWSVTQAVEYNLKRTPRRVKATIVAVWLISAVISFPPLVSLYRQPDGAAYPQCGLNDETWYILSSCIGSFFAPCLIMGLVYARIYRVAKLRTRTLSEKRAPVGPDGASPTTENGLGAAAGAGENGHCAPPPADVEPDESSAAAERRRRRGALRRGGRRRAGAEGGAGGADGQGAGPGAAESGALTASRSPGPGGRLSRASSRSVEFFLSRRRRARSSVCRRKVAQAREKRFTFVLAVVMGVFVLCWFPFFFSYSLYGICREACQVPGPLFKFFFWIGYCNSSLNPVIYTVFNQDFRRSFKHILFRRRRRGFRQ
Sequence of BMP-2-inducible protein kinase (Q9NSY1 whole entry, the tested form may be a part): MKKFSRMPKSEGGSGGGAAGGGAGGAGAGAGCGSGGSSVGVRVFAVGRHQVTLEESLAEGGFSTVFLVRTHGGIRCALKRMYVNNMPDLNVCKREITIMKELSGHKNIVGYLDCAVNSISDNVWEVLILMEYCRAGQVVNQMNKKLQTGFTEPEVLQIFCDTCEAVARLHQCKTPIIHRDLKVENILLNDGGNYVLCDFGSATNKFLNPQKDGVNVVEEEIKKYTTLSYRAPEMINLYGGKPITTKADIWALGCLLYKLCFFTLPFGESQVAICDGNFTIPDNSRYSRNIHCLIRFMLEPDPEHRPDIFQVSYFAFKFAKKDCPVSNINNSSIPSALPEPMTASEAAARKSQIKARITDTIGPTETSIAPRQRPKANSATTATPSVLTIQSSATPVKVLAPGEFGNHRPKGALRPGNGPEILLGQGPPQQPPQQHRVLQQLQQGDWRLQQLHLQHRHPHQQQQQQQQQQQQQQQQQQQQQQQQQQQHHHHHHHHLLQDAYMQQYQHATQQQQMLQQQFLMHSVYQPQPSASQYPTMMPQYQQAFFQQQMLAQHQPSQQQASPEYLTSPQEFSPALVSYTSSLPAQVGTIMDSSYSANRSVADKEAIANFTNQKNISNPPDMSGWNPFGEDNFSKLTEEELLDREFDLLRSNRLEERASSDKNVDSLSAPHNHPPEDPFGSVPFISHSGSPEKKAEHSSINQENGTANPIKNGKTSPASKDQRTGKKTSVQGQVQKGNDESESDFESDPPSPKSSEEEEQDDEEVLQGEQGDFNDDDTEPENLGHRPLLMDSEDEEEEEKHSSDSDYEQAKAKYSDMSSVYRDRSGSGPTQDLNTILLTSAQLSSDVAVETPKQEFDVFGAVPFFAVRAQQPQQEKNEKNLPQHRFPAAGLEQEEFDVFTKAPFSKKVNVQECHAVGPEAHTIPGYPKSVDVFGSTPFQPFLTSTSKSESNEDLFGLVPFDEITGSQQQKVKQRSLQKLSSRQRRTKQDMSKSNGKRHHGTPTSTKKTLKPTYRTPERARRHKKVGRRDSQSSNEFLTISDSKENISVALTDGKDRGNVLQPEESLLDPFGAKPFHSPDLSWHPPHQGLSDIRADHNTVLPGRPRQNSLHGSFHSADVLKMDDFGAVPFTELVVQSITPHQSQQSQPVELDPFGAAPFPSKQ
Sequence of Phosphatidylinositol 4-phosphate 5-kinase type-1 alpha (Homo sapiens) (Q99755 whole entry, the tested form may be a part): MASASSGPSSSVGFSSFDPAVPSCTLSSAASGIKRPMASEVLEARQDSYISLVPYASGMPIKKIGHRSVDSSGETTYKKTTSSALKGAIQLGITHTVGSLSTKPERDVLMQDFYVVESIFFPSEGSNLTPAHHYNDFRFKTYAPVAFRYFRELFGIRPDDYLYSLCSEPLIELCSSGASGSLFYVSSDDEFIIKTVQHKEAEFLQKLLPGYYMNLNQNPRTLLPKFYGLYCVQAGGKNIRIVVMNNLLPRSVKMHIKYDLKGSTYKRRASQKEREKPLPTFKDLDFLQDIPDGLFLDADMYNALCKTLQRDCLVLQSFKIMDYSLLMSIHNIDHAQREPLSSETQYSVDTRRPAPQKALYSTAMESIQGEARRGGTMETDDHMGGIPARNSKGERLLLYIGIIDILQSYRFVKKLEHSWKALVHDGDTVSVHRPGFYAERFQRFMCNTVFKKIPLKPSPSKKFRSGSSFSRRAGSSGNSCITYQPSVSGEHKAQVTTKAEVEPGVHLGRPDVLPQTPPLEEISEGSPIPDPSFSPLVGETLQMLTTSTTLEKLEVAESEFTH

For `CC(C)C[C@@H](N)C(=O)Nc1ccc(-c2cnco2)c(OC(F)F)c1`, which Papp A→B at 2 h [1] is on record?
Its Papp A→B at 2 h is 12.9 ×10⁻⁶ cm/s.

What about the ED50 [2] of the same molecule?
Its ED50 is 6 mg/kg.

What about the remaining at 10 min, 0.5 µM [3] of the same molecule?
Its remaining at 10 min, 0.5 µM is 84%.

What about the remaining at 10 min, 0.5 µM [4] of the same molecule?
Its remaining at 10 min, 0.5 µM is 68%.

And the fraction unbound at 5 h, 10 µM [5]?
Its fraction unbound at 5 h, 10 µM is 0.038.

What about the concentration at 2 h [6] of the same molecule?
The concentration at 2 h was 17.7 µM.

What about the Kp [7] of the same molecule?
The Kp was 1.04.

What about the solubility [8] of the same molecule?
Its solubility is 5850 µg/mL (≈ 17.2 mM).

What about the Activity [9] of the same molecule?
Its Activity is 21%.

What about the Activity [10] of the same molecule?
The Activity was 13%.

And the Activity [11]?
Its Activity is 1.4%.

What about the Activity [12] of the same molecule?
The Activity was 7.6%.

What about the Activity [13] of the same molecule?
The Activity was 31%.

What about the IC50 [14] of the same molecule?
Its IC50 is 120 nM.

And the IC50 [15]?
Its IC50 is 120 nM.

What about the IC50 [16] of the same molecule?
The IC50 was 1060 nM.

And the IC50 [17]?
The IC50 was 507 nM.

And the IC50 [18]?
Its IC50 is 1330 nM.

And the IC50 [19]?
The IC50 was > 30000 nM.

What about the IC50 [20] of the same molecule?
The IC50 was > 30000 nM.

What about the inhibition [21] of the same molecule?
The inhibition was 56%.

And the inhibition [22]?
The inhibition was “Active”.

And the concentration [23]?
The concentration was 2.6 µM.

What about the concentration [24] of the same molecule?
Its concentration is 9.1 µM.

What about the concentration [25] of the same molecule?
Its concentration is 37 µM.

And the concentration [26]?
Its concentration is 77 µM.

What about the Activity (Mus musculus [27]) of the same molecule?
Its Activity is “Active”.

And the Activity (Mus musculus [28])?
Its Activity is “Active”.

What about the Activity (Mus musculus [29]) of the same molecule?
The Activity was “Active”.

And the Activity (Rattus norvegicus [30])?
Its Activity is “Active”.

What about the Activity (Rattus norvegicus [31]) of the same molecule?
The Activity was 45%.

What about the Activity (Rattus norvegicus [32]) of the same molecule?
The Activity was 49%.

What about the Kp uu at 4 h [33] of the same molecule?
The Kp uu at 4 h was 0.7.

What about the Activity (Rattus norvegicus [34]) of the same molecule?
Its Activity is 90%.

What about the “Cp(f)” value [35] of the same molecule?
The value was 0.01 µM.

What about the “Cp(f)” value [36] of the same molecule?
Its value is 1.04 µM.

What about the concentration at 3.167 h [37] of the same molecule?
The concentration at 3.167 h was 7.4 µM.

And the concentration at 3.167 h [38]?
Its concentration at 3.167 h is 84 µM.
